Activity calls are given as the source filed them. No rule for the calls is given here. *1 amine or outer side, *2 acyl side, *3 side chain or, on linkers, in order; H or OH if unused. Where a SMILES comes first, the peptide text is derived from it. [ ]: non-standard residue; d: D form. X2 = CCC[C@@H](N[*:1])[C@H](C)C(=O)O[C@H](C(=O)[*:2])[C@@H](C)CC; X1 = CC(N[*:1])C(=O)C(C)(C)C(=O)[*:2]; NMeY = CN[C@@H](Cc1ccc(O)cc1)C(=O)O; NMeL = CN[C@@H](CC(C)C)C(=O)O; NMeV = CN[C@H](C(=O)O)C(C)C; NMeA = CN[C@@H](C)C(=O)O
Tested on: 697B B-cell line, NF-kB luciferase reporter luminescence
Test: NF-kB reporter inhibition in B cells, dose response, selectivity assay for T-cell antigen receptor NF-kB inhibitors, 697B cells, luminescence (AID 489033)

Structure (SMILES)	IC50
Cc1nc(SCC(=O)Nc2nc3ccccc3s2)c(C#N)c(C)c1C	< 0.16 µM
C/C(=N\NC(=O)c1ccc(Cl)c(Cl)c1)c1ccccn1	1.03 µM
COc1cc2c(c(OC)c1OC)-c1ccc(OC)c(=O)cc1[C@@H](N(C)CC#CCO)CC2	> 80 µM (inactive)
CCOC(=O)N1CCN(C(=O)C2CCCN(Cc3nc(-c4ccc(Cl)cc4)oc3C)C2)CC1 (stereo not given)	33.9 µM (inactive)
COc1cc2c(c(OC)c1OC)-c1ccc(O)cc1[C@@H](NC(C)=O)CC2	> 80 µM (inactive)
CCOc1cccc(-c2nnc3n2N=C(c2cc(OC)ccc2OC)CS3)c1	> 80 µM (inactive)
COC(=O)c1[nH]c2ccc(F)cc2c1NS(=O)(=O)c1ccc(OC)cc1	> 80 µM (inactive)
COc1cc(Nc2ccc(C)cc2)c([N+](=O)[O-])nc1[N+](=O)[O-]	> 80 µM (inactive)
COc1ccc(C2=Nn3c([n+](C)c4ccccc43)SC2)cc1	31 µM (inactive)
Cc1cc(NC(=O)COC(=O)c2ccc(S(=O)(=O)N3CCCc4ccccc43)cc2)no1	> 80 µM (inactive)
CCn1ncc(C2=NOC(C(=O)NCc3ccccc3)C2)c1C (stereo not given)	> 80 µM (inactive)
CCCCCN1C=CC(=C2C(=O)c3ccccc3C2=O)C=C1	0.38 µM
COc1cccc(/C=N/Nc2ccc(C(=O)O)cc2)c1O	0.83 µM
CCCCc1ccc(NC(=O)C(=O)NCCN2CCN(Cc3ccc([N+](=O)[O-])cc3)CC2)cc1	> 80 µM (inactive)
COc1ccc(C(NC(=O)C(C)C)c2ccc3cccnc3c2O)cc1 (stereo not given)	> 80 µM (inactive)
CCOc1ccccc1NC(=O)Cn1nnc(C(=O)NCc2cccs2)c1N	> 80 µM (inactive)
COc1cc(/C=C/C(=O)c2ccc([N+](=O)[O-])o2)ccc1O	14.5 µM
CCC[C@H]1NC(=O)[C@H](C)N(C)C(=O)C(C)(C)C(=O)C(C)NC(=O)[C@H](Cc2ccc(OC)cc2)N(C)C(=O)[C@H](C(C)C)N(C)C(=O)CNC(=O)[C@H](CC(C)C)N(C)C(=O)CNC(=O)[C@H]([C@@H](C)CC)OC(=O)[C@H]1C (stereo not given in full) (cyclo(G[NMeL]G[NMeV][NMeY](Me)[X1][NMeA][X2]))	29.3 µM (inactive)
COCCCNC(=O)C(=O)Nc1ccc2c(c1)N(S(=O)(=O)c1cccs1)CCC2	> 80 µM (inactive)
Cc1cc(C)cc(NC(=O)c2cc(C)n(Cc3cccs3)c2C)c1	24.1 µM (inactive)
C/C(=N\NC(=O)c1cc(C)nc2ccccc12)c1ccccn1	1.23 µM
c1cc2c(cc1C1=NNC(=NC3CC3)SC1)OCCO2	0.3 µM
C=CCn1c(C)cc(C2=NNC(=NCC)SC2)c1C	< 0.16 µM
O=C(Nc1ccc(S(=O)(=O)N2CCOCC2)cc1)c1ccc(CN2CCc3ccccc3C2)cc1	> 80 µM (inactive)

Structure (SMILES)	IC50
O=C(N/N=C/c1c(O)ccc2ccccc12)c1ccc(Br)o1	> 80 µM (inactive)
COC(=O)c1ccc(C)c(NS(=O)(=O)c2ccc3c(c2)OCCO3)c1	> 80 µM (inactive)
NC(=O)CC(NC(=O)c1ccc(Br)cc1)c1ccc(N2CCCCCC2)c([N+](=O)[O-])c1 (stereo not given)	47.5 µM (inactive)
COc1ccccc1CNS(=O)(=O)c1ccc(-c2cnc(C3CC3)o2)cc1	> 80 µM (inactive)
Cc1ccc(S(=O)(=O)Cc2ccc(C(=O)N3CCN(c4cccc(C)c4C)CC3)o2)cc1	57.9 µM (inactive)
CC(=O)O[C@H]1C(=O)[C@]2(C)[C@H]([C@H](OC(=O)c3ccccc3)[C@]3(O)C[C@H](OC(=O)[C@H](O)[C@@H](NC(=O)c4ccccc4)c4ccccc4)C(C)=C1C3(C)C)[C@]1(OC(C)=O)CO[C@@H]1C[C@@H]2O	> 80 µM (inactive)
O=C(c1cn(Cc2ccccc2)nc1-c1ccccc1)N1CCN(c2ccccn2)CC1	> 80 µM (inactive)
Cc1ccc(C(=O)O/N=C(\N)c2ccccn2)c(Cl)c1	0.86 µM
O=C(COc1ccc2c(-c3ccccc3)cc(=O)oc2c1)Nc1cccnc1	> 80 µM (inactive)
COC(=O)c1ccc2nc(Nc3nc4c(F)cc(F)cc4s3)sc2c1	24.6 µM (inactive)
Cn1c2c(c(=O)n(C)c1=O)C(C(F)(F)F)(C(F)(F)F)N=C(c1ccc(Cl)cc1)N2	1.93 µM
Cc1oc2c(c1C(=O)NCc1cccnc1)C(=O)c1ccccc1C2=O	4.69 µM
O=C(Nc1ccc(Cc2ccncc2)cc1)c1ccc(S(=O)(=O)N2CCCC2)cc1	5.3 µM
Cc1noc(C)c1COc1cccc(C(=O)OCC(=O)N2CC(=O)Nc3ccccc32)c1	> 80 µM (inactive)
Cc1ccc(-n2ncc3c(N4CCN(c5ccccc5)CC4)ncnc32)c(C)c1	5.39 µM
CCN1/C(=C/C(C)=C/c2sc3ccccc3[n+]2CC)Sc2ccccc21	2.42 µM
COc1ccc(OC)c(CCNC(=O)Cn2nc(C)c3c(C)n(-c4ccc(C)cc4)nc3c2=O)c1	> 80 µM (inactive)
CC(C)Oc1ccccc1C1CC(=O)Nc2cc3c(cc21)OCO3 (stereo not given)	> 80 µM (inactive)
CCN1/C(=C/c2ccc3ccccc3[n+]2CC)C=Cc2ccccc21	3.57 µM
Cc1ccc(S(=O)(=O)Nc2ccccc2-c2ccccc2)cc1	> 80 µM (inactive)
Cc1nc(NCc2ccco2)c2c(C)c(C)sc2n1	5.3 µM
COc1ccc(C2=NOC(C(=O)NCc3cccs3)C2)cc1OC (stereo not given)	> 80 µM (inactive)
CCCCn1c2c(c(=N)c3c1CCC3)CCC2	> 80 µM (inactive)
COc1ccc(Nc2nc(-c3sc(C)nc3C)cs2)cc1	> 80 µM (inactive)

Structure (SMILES)	IC50
COc1cc(C(=O)Nc2ccc3c(c2)ncn3C)cc(OC)c1OC	> 80 µM (inactive)
Cc1noc(C)c1COc1ccc(C(=O)NNC(=O)c2ccccc2F)cc1	> 80 µM (inactive)
Cc1ccc(N(C)S(=O)(=O)c2ccc(-c3cnc(C4CC4)o3)cc2)cc1	67.6 µM (inactive)
Cc1ccc(Nc2nc(-c3c(C)nc4ccccn34)cs2)cc1	> 80 µM (inactive)
Cc1ccc2cccc(NS(=O)(=O)c3ccccc3)c2n1	0.94 µM
C/C=C/COC(=O)c1[nH]c2c(c1C)C(=O)CC(c1ccco1)C2 (stereo not given)	> 80 µM (inactive)
COc1ccc(NC(=O)/C(Cl)=C(/Cl)S(=O)Cc2ccccc2Cl)cn1 (stereo not given)	1.27 µM
CCN1C=CC(=C2C(=O)c3ccccc3C2=O)C=C1	1.13 µM
CCOC(=O)N=Nc1c2ccccc2c2nc3no[nH]c3nc12	2.28 µM
CCN(CC)c1ccc(-c2nn3c(-c4ccccc4OC)nnc3s2)cc1	> 80 µM (inactive)
CCOC(=O)c1ccc(NC(=O)Cn2cnc3cc(C)c(C)cc32)cc1	> 80 µM (inactive)
CCCCCCCn1c2c(c(=N)c3ccccc31)CCC2	3.7 µM
O=C(Nc1ccc(CSc2ccccc2)cc1)c1ccc(CN2CCOCC2)cc1	> 80 µM (inactive)
COc1cc(NS(=O)(=O)c2ccc(OC)c(C)c2C)c(OC)cc1Cl	> 80 µM (inactive)
COc1ccc(NC(=O)/C(Cl)=C(/Cl)S(=O)Cc2ccc(C)cc2)cn1 (stereo not given)	< 0.16 µM
COc1cc(-c2noc(C)c2-c2ccc(N(C)C)nc2)cc(OC)c1OC	> 80 µM (inactive)
C[C@@H]1C=CC(=O)O[C@@H]1c1ccc(Cl)cc1	5.11 µM
CSc1nc(N(C)NC(=O)c2cccc(C)c2)c2ccccc2n1	> 80 µM (inactive)
CC1CCN(c2c(NCc3ccc(C(=O)N4CCc5ccccc54)cc3)c(=O)c2=O)CC1	> 80 µM (inactive)
Cc1csc2sc(-c3ccnc(SCC(=O)NCc4ccccc4)n3)c(C)c12	> 80 µM (inactive)
CC1(C)Cc2c(sc(NC(=O)COc3cccc4ccccc34)c2C#N)C(C)(C)N1	8.2 µM
CCOc1ccc(-c2[nH]ncc2-c2ccc(OC)c(OC)c2)c(O)c1	> 80 µM (inactive)
O=c1cc(-c2ccccc2)[nH]c2ccccc12	> 80 µM (inactive)
COc1cc(CC(=O)OCC(=O)c2ccc3c(c2)OCCO3)cc(OC)c1OC	> 80 µM (inactive)

Structure (SMILES)	IC50
CN(Cc1ccccc1)C1=CC(=[N+]2CCCC2)CC(C)(C)C1	> 80 µM (inactive)
O=C(Nc1ccc([N+](=O)[O-])cc1)Nc1ccon1	> 80 µM (inactive)
CC(C)(C)c1ccc(C(=O)O/N=C(\N)c2ccccn2)cc1	0.88 µM
Cc1ccc(Oc2ccc(OCC(=O)Nc3ccncc3)cc2)cc1	58.6 µM (inactive)
CCOCCOC(=O)c1[nH]c2c(c1C)C(=O)CC(c1ccccc1)C2 (stereo not given)	> 80 µM (inactive)
CC(=O)O[C@H]1C(=O)[C@@]2(C)[C@H]([C@H](OC(=O)c3ccccc3)[C@]3(O)C[C@H](OC(=O)[C@H](O)[C@@H](NC(=O)c4ccccc4)c4ccccc4)C(C)=C1C3(C)C)[C@]1(OC(C)=O)CO[C@@H]1C[C@@H]2O	> 80 µM (inactive)
O=C(NNc1ccnc2cc(Cl)ccc12)C1CCCCC1	> 80 µM (inactive)
O=C(Nc1ccc(Cl)c(S(=O)(=O)N2CCOCC2)c1)c1ccc(OCC2CCCO2)cc1 (stereo not given)	4.54 µM
O=S1(=O)Nc2c(ccc3cccnc23)-c2ccccc21	0.54 µM
CCn1ncc(C2=NOC(C(=O)NCc3ccc(Cl)cc3)C2)c1C (stereo not given)	> 80 µM (inactive)
COc1ccc(CCNc2cc(N3CCN(C(=O)c4ccccc4F)CC3)ccc2[N+](=O)[O-])cc1OC	> 80 µM (inactive)
COc1ccc(CC(=O)Nc2cccc(-c3nnc(-c4cccc(C)c4)o3)c2)cc1OC	8.4 µM
CC(=O)Nc1ccc(S(=O)(=O)N2c3ccc(F)cc3CCC2C)cc1 (stereo not given)	> 80 µM (inactive)
COc1cc(C(=O)Nc2ccc3c(c2)CCN3C(C)=O)cc(OC)c1OC	> 80 µM (inactive)
Cc1ccc(S(=O)(=O)Nc2cccc(-c3ccc4nncn4n3)c2)cc1	> 80 µM (inactive)
COc1cc(NCCCCCCCN)c2ncccc2c1	41.4 µM (inactive)
Cc1ccc(-c2cc(C(F)F)n3ncc(C(=O)N4CCc5ccccc54)c3n2)cc1	> 80 µM (inactive)
O=C(Nc1ncc(Cc2ccc(SC(F)F)cc2)s1)c1ccc(OC(F)F)cc1	> 80 µM (inactive)
COc1ccc(OC)c(COC(=O)c2cc([N+](=O)[O-])ccc2N2CCOCC2)c1	> 80 µM (inactive)
COC(=O)Nc1ccc(S(=O)(=O)N2CCCc3ccccc32)cc1	> 80 µM (inactive)
CCCCCOC(=O)c1[nH]c2c(c1C)C(=O)CC(c1ccco1)C2 (stereo not given)	> 80 µM (inactive)
O=C(c1ccc(CS(=O)c2ccccc2Cl)o1)N1CCN(c2ccccn2)CC1 (stereo not given)	> 80 µM (inactive)
CCN(CC)c1ccc(/C=N/NC(=O)c2cccc(S(=O)(=O)Nc3ccccc3OC)c2)c(O)c1	3.3 µM
